Read-outs that look alike come from different tables or passages of the source.

In one data set the test system is SNL model. Nature of the data set: Antiallodynic activity in the Chung model (SNL, Spinal Nerve Ligation; von Frey). The data set is classed as in vivo, Sprague-Dawley rats.
Data set [1] deals with hot plate withdrawal latency. The experiment in a line: Hot-plate test. It counts as in vivo, ICR mice. The note with it: mouse, oral. The procedure:
To examine the pain relief effect of the sulfamate derivative compounds, a hot-plate test was conducted referring to Current Protocols in Neuroscience; Behavioral Neuroscience Unit 8.9.
ICR mice (male, 30-35 g; Orient Bio, Korea) were habituated before the test in the test room for 1 hour. Animals were fasted 2 hr before administration of the compounds. […] All compounds were dissolved in a vehicle of 30% (v/v) PEG 400 or 20% (v/v) Tween 80. The control group was treated with vehicle without treatment compounds.
0.5 hr after the administration of compounds, the mice were put on a hot plate pre-heated to 55±1° C. (Hu, X. et al, 2008), and then, the withdrawal latency was measured (cut-off time: 30 sec) until the point when each mouse was taking a paw off from the plate, shaking, licking a paw or hind leg, or jumping from the plate.
(In general: In hot-plate and tail-flick tests a longer latency is read as antinociception.)

Setting [2] is: Rattus norvegicus, po, 1 h, read-out: SNL model: ED50 mg/kg.

Take `CC1(C)Oc2ccccc2[C@@H](COS(N)(=O)=O)O1` [Example 2, ((S)-2,2-dimethyl-4H-benzo[d][1,3]dioxin-4-yl)methyl sulfamate]: the ED50 with SNL model (rat, oral, 1 h, read-out: SNL model: ED50) was 4.5 mg/kg; in data set [1] (0.5 h), 170 mg/kg.

In the case of `CC1(C)Oc2ccccc2[C@H](COS([NH-])(=O)=O)O1.[Na+]` [Example 58, Sodium (R)-(((2,2-dimethyl-4H-benzo[d][1,3]dioxin-4-yl)methoxy)sulfonyl)amide Trihydrate], in the data set with SNL model (setting [2]), the ED50 amounted to 8.9 mg/kg.

Take `CC1(C)Oc2ccccc2C(COS([NH-])(=O)=O)O1.[Na+]` (centres unmarked) [Example 60, Sodium (((2,2-dimethyl-4H-benzo[d][1,3]dioxin-4-yl)methoxy)sulfonyl)amide Trihydrate]: the ED50 with SNL model (setting [2]) came to 3.5 mg/kg. Moreover, the “Hot plate test: effect (%) compared to control” value in data set [1] (170 mg/kg administered, time not given) is “(196.2%)”.

A word on the melting point: it is the temperature of the solid-liquid transition. `[NH-]S(=O)(=O)OC[C@H]1OC2(CCCC2)Oc2ccccc21.[Na+]` [Example 65, Sodium (S)-(((4H-spiro[benzo[d][1,3]dioxine-2,1′-cyclopentan]-4-yl)methoxy)sulfonyl)amide] returned a melting point of 121.2 to 131.9 °C. Moreover, the ED50 in the data set with SNL model (Rattus norvegicus, po, 0.5 h, read-out: SNL model: ED50 mg/kg) amounted to 3.4 mg/kg.

For the molecule `CC1(C)Oc2ccccc2[C@H](COS([NH-])(=O)=O)O1.[K+]` [Example 70, Potassium (R)-(((2,2-dimethyl-4H-benzo[d][1,3]dioxin-4-yl)methoxy)sulfonyl)amide], the response vs control in vivo at 3.5 mg/kg in the data set on SNL model (Rattus norvegicus, po, 1 h, read-out: SNL model: effect (%) compared to control, rat, oral, 3.5 mg/kg administered, 1 h) is 46.7%.

Source of the values: patent publication US10081615B2, “Sulfamate derivative compounds for use in treating or alleviating pain” (Bio-Pharm Solutions Co., Ltd., priority 2013, dated 2018).
